Where two headings read alike, the source gives them in different places. Where a SMILES comes first, the peptide text is derived from it. Bridges are numbered along the chain shown (N, C = ends). [ ]: non-standard residue; d: D form. PEG12 = NCCOCCOCCOCCOCCOCCOCCOCCOCCOCCOCCOCCOCCC(=O)O; NMeY = CN[C@@H](Cc1ccc(O)cc1)C(=O)O; NMeF = CN[C@@H](Cc1ccccc1)C(=O)O; Ahp(2) = CCCCC[C@H](N)C(=O)O
Target: transferrin receptor (hTfR) (Homo sapiens, UniProt P02786)
Test: Intermolecular interaction evaluation test between transferrin receptor (hTfR) and peptide by surface plasmon resonance (SPR)
Type: binding
Details: SPR, read-out: KD
Description: For each of the various synthesized peptides, the intermolecular interaction of the peptide with the transferrin receptor (hTfR) was tested by surface plasmon resonance (SPR) according to the following method. The specific test method is as follows.
An NTA sensor chip (Global Life Sciences Technologies Japan) was inserted in a Biacore T200 (Global Life Sciences Technologies Japan) and a prime operation was performed 3 times with a running buffer: 10 mM HEPES pH 8.0 (Nacalai Tesque), 150 mM NaCl (Nacalai Tesque), 0.05% Tween 20 (Nacalai Tesque), 0.1% BSA (Sigma-Aldrich), 1.0% DMSO (FUJIFILM Wako Pure Chemical) to create an Equilibration state at a flow rate of 30 µL/min. After reacting with 350 mM EDTA solution for 60 seconds at a flow rate of 10 µL/min then reacting with 0.5 mM NiCl2 solution (Kishida Chemical) for 60 seconds at a flow rate of 10 µL/min, the NTA sensor chip was washed with 3 mM EDTA solution (Nacalai Tesque) for 60 seconds at a flow rate of 10 µL/min. After mixing 50 µL each of 60 mM EDC solution (Global Life Sciences Technologies Japan) and 650 mM NHS solution (Global Life Sciences Technologies Japan), the mixture was reacted for 420 seconds at a flow rate of 10 µL/min. By diluting with the running buffer, 150 µL of 3.2 µM hTfR solution was prepared and used for reaction for 600 seconds at a flow rate of 10 µL/min, thereby immobilizing hTfR on the NTA sensor chip. After immobilization, capping was performed by reacting with 1.0 M ethanolamine aqueous solution (Global Life Sciences Technologies Japan) for 420 seconds at a flow rate of 10 µL/min. A peptide dissolution liquid prepared to 10 mM in the DMSO solution was diluted with the running buffer to a final concentration of 10 µM so as to become the peptide dissolution liquid, then peptide solutions of 100 nM, 50 nM, 25 nM, 10 nM and 5 nM were prepared. Kinetics of the peptide to hTfR was acquired by SPR measurement using the above-mentioned samples. Single-cycle kinetics was used as a kinetic evaluation model and curve fitting was performed using Biacore T200 Evaluation Software Version 3.0 (Global Life Sciences Technologies Japan). An obtained sensorgram was subjected to curve fitting using the least-squares method, and the binding of the peptide to hTfR was evaluated by obtaining KD values. […] A chemical structure of hTfR No. 894 is as follows.
The variant peptides were synthesized according to Example 1 unless otherwise stated in Example 9 or 10. The linker-added peptides were synthesized according to Example 1, except that Fmoc-NH-SAL-PEG resin (Watanabe Chemical Industries) was used as a resin for the peptide synthesis when the linker was PEG. The peptide, to which a peptide, a fatty acid, PEG, or a conjugate thereof is added as a linker, was also synthesized according to Example 1, unless otherwise stated in Example 9 or 10.

[1] = hTfR No. 894 variants with PEG12c linker (Table 2)

Chain of transferrin receptor (hTfR) (P02786 whole entry): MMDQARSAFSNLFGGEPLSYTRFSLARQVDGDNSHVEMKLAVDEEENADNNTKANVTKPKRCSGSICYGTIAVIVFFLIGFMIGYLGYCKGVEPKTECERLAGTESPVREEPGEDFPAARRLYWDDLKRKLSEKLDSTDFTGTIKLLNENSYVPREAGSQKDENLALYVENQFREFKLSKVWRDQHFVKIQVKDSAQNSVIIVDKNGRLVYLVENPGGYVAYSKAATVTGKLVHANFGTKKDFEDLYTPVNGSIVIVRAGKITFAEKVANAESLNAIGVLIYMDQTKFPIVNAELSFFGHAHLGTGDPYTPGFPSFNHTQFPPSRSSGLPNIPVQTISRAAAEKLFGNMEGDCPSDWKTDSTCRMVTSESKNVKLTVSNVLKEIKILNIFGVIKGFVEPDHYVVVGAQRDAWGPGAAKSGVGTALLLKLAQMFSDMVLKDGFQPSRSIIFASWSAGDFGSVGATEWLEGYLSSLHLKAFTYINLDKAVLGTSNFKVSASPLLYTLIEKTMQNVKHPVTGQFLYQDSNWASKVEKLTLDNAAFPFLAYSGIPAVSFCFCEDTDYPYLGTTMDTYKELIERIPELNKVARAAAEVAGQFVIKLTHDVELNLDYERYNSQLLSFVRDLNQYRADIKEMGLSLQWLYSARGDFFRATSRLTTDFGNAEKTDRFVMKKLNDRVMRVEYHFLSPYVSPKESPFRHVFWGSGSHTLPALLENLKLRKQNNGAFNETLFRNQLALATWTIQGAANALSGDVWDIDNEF

**Q.** For `CC[C@H](C)[C@@H]1NC(=O)[C@H](Cc2ccc(O)cc2)NC(=O)[C@H](Cc2ccc(O)cc2)NC(=O)[C@H](CC(N)=O)NC(=O)[C@H](Cc2c[nH]c3ccccc23)NC(=O)[C@H](C(C)C)NC(=O)[C@H](Cc2ccccc2)N(C)C(=O)[C@H](C(C)C)NC(=O)[C@H](C)NC(=O)CSC[C@@H](C(=O)NCCOCCOCCOCCOCCOCCOCCOCCOCCOCCOCCOCCOCCC(N)=O)NC(=O)[C@H](CCC(=O)O)NC(=O)[C@H](Cc2ccc(O)cc2)NC(=O)[C@H](CCCNC(=N)N)NC(=O)[C@H](CCCNC(=N)N)NC(=O)[C@H]([C@@H](C)CC)NC1=O` [compound 124], which Kd [1] is on record?
**A.** Its Kd is 100 to 1000 nM.

**Q.** How did the Kd [1] turn out when `CC[C@H](C)[C@@H]1NC(=O)[C@H](Cc2ccc(O)cc2)NC(=O)[C@H](Cc2c[nH]c3ccccc23)NC(=O)[C@H](CC(N)=O)NC(=O)[C@H](Cc2c[nH]c3ccccc23)NC(=O)[C@H](C(C)C)NC(=O)[C@H](Cc2ccccc2)N(C)C(=O)[C@H](C(C)C)NC(=O)[C@H](C)NC(=O)CSC[C@@H](C(=O)NCCOCCOCCOCCOCCOCCOCCOCCOCCOCCOCCOCCOCCC(N)=O)NC(=O)[C@H](Cc2ccc(O)cc2)N(C)C(=O)[C@H](Cc2ccc(O)cc2)NC(=O)[C@H](CCCNC(=N)N)NC(=O)[C@H](CCCNC(=N)N)NC(=O)[C@H]([C@@H](C)CC)NC1=O` [compound 125] ({CH2CO}-AV[NMeF]VWNWYIIRRY[NMeY]C[PEG12]-NH2; thioether N-15) was run?
**A.** The Kd was 1 to 100 nM.

**Q.** How did the Kd [1] turn out when `CC[C@H](C)[C@@H]1NC(=O)[C@H](Cc2ccc(O)cc2)NC(=O)[C@H](Cc2ccc(O)cc2)NC(=O)[C@H](CC(N)=O)NC(=O)[C@H](Cc2c[nH]c3ccccc23)NC(=O)[C@H](C(C)C)NC(=O)[C@H](Cc2ccccc2)N(C)C(=O)[C@H](C(C)C)NC(=O)[C@H](C)NC(=O)CSC[C@@H](C(=O)NCCOCCOCCOCCOCCOCCOCCOCCOCCOCCOCCOCCOCCC(N)=O)NC(=O)[C@H](CCCNC(=N)N)NC(=O)[C@H](Cc2ccc(O)cc2)NC(=O)[C@H](CCCNC(=N)N)NC(=O)[C@H](CCCNC(=N)N)NC(=O)[C@H]([C@@H](C)CC)NC1=O` [compound 127] was run?
**A.** Its Kd is 1 to 100 nM.

**Q.** With `CC[C@H](C)[C@@H]1NC(=O)[C@H](Cc2ccc(O)cc2)NC(=O)[C@H](Cc2ccc(O)cc2)NC(=O)[C@H](CC(N)=O)NC(=O)[C@H](CCc2ccccc2)NC(=O)[C@H](C(C)C)NC(=O)[C@H](Cc2ccccc2)N(C)C(=O)[C@H](C(C)C)NC(=O)[C@H](C)NC(=O)CSC[C@@H](C(=O)NCCOCCOCCOCCOCCOCCOCCOCCOCCOCCOCCOCCOCCC(N)=O)NC(=O)[C@H](Cc2ccc(O)cc2)N(C)C(=O)[C@H](Cc2ccc(O)cc2)NC(=O)[C@H](CCCNC(=N)N)NC(=O)[C@H](CCCNC(=N)N)NC(=O)[C@H]([C@@H](C)CC)NC1=O` [compound 128] as the molecule, how does the Kd [1] read?
**A.** Its Kd is 1 to 100 nM.

**Q.** For `CCCCC[C@@H]1NC(=O)[C@H](C)NC(=O)CSC[C@@H](C(=O)NCCOCCOCCOCCOCCOCCOCCOCCOCCOCCOCCOCCOCCC(N)=O)NC(=O)[C@H](Cc2ccc(O)cc2)N(C)C(=O)[C@H](Cc2ccc(O)cc2)NC(=O)[C@H](CCCNC(=N)N)NC(=O)[C@H](CCCNC(=N)N)NC(=O)[C@H]([C@@H](C)CC)NC(=O)[C@H]([C@@H](C)CC)NC(=O)[C@H](Cc2ccc(O)cc2)NC(=O)[C@H](Cc2ccc(O)cc2)NC(=O)[C@H](CC(N)=O)NC(=O)[C@H](Cc2c[nH]c3ccccc23)NC(=O)[C@H](C(C)C)NC(=O)[C@H](Cc2ccccc2)N(C)C1=O` [compound 130] ({CH2CO}-A[Ahp(2)][NMeF]VWNYYIIRRY[NMeY]C[PEG12]-NH2; thioether N-15), which Kd [1] is on record?
**A.** The Kd was 1 to 100 nM.

**Q.** How did the Kd [1] turn out when `CC[C@H](C)[C@@H]1NC(=O)[C@H](Cc2ccc(O)cc2)NC(=O)[C@H](Cc2ccc(O)cc2)NC(=O)[C@H](CC(N)=O)NC(=O)[C@H](Cc2c[nH]c3ccccc23)NC(=O)[C@H](C(C)C)NC(=O)[C@H](Cc2ccccc2)N(C)C(=O)[C@H](Cc2ccccc2)NC(=O)[C@H](C)NC(=O)CSC[C@@H](C(=O)NCCOCCOCCOCCOCCOCCOCCOCCOCCOCCOCCOCCOCCC(N)=O)NC(=O)[C@H](Cc2ccc(O)cc2)N(C)C(=O)[C@H](Cc2ccc(O)cc2)NC(=O)[C@H](CCCNC(=N)N)NC(=O)[C@H](CCCNC(=N)N)NC(=O)[C@H]([C@@H](C)CC)NC1=O` [compound 133] ({CH2CO}-AF[NMeF]VWNYYIIRRY[NMeY]C[PEG12]-NH2; thioether N-15) was run?
**A.** The Kd was 1 to 100 nM.

**Q.** `CC[C@H](C)[C@@H]1NC(=O)[C@H](Cc2ccc(O)cc2)NC(=O)[C@H](Cc2ccccc2)NC(=O)[C@H](CC(N)=O)NC(=O)[C@H](Cc2c[nH]c3ccccc23)NC(=O)[C@H](C(C)C)NC(=O)[C@H](Cc2ccccc2)N(C)C(=O)[C@H](C(C)C)NC(=O)[C@H](C)NC(=O)CSC[C@@H](C(=O)NCCOCCOCCOCCOCCOCCOCCOCCOCCOCCOCCOCCOCCC(N)=O)NC(=O)[C@H](Cc2ccc(O)cc2)N(C)C(=O)[C@H](Cc2ccc(O)cc2)NC(=O)[C@H](CCCNC(=N)N)NC(=O)[C@H](CCCNC(=N)N)NC(=O)[C@H]([C@@H](C)CC)NC1=O` [compound 135] ({CH2CO}-AV[NMeF]VWNFYIIRRY[NMeY]C[PEG12]-NH2; thioether N-15) was tested. Which Kd [1] did it give?
**A.** The Kd was 1 to 100 nM.

**Q.** Which Kd [1] does the source give for `CC[C@H](C)[C@@H]1NC(=O)[C@H](Cc2ccc(O)cc2)NC(=O)[C@H](Cc2ccc(O)cc2)NC(=O)[C@H](CC(N)=O)NC(=O)[C@H](Cc2c[nH]c3ccccc23)NC(=O)[C@H](C(C)C)NC(=O)[C@H](Cc2ccc(OC)cc2)N(C)C(=O)[C@H](C(C)C)NC(=O)[C@H](C)NC(=O)CSC[C@@H](C(=O)NCCOCCOCCOCCOCCOCCOCCOCCOCCOCCOCCOCCOCCC(N)=O)NC(=O)[C@H](Cc2ccc(O)cc2)N(C)C(=O)[C@H](Cc2ccc(O)cc2)NC(=O)[C@H](CCCNC(=N)N)NC(=O)[C@H](CCCNC(=N)N)NC(=O)[C@H]([C@@H](C)CC)NC1=O` [compound 136] ({CH2CO}-AV[NMeY](Me)VWNYYIIRRY[NMeY]C[PEG12]-NH2; thioether N-15) here?
**A.** Its Kd is 1 to 100 nM.

**Q.** How did the Kd [1] turn out when `CCCCC[C@@H]1NC(=O)[C@H](Cc2ccc(O)cc2)NC(=O)[C@H](CC(N)=O)NC(=O)[C@H](Cc2c[nH]c3ccccc23)NC(=O)[C@H](C(C)C)NC(=O)[C@H](Cc2ccccc2)N(C)C(=O)[C@H](C(C)C)NC(=O)[C@H](C)NC(=O)CSC[C@@H](C(=O)NCCOCCOCCOCCOCCOCCOCCOCCOCCOCCOCCOCCOCCC(N)=O)NC(=O)[C@H](Cc2ccc(O)cc2)N(C)C(=O)[C@H](Cc2ccc(O)cc2)NC(=O)[C@H](CCCNC(=N)N)NC(=O)[C@H](CCCNC(=N)N)NC(=O)[C@H]([C@@H](C)CC)NC(=O)[C@H]([C@@H](C)CC)NC1=O` [compound 139] ({CH2CO}-AV[NMeF]VWNY[Ahp(2)]IIRRY[NMeY]C[PEG12]-NH2; thioether N-15) was run?
**A.** The Kd was 1 to 100 nM.

**Q.** Which Kd [1] does the source give for `CC[C@H](C)[C@@H]1NC(=O)[C@H](Cc2ccc(O)cc2)NC(=O)[C@H](C)NC(=O)[C@H](CC(N)=O)NC(=O)[C@H](Cc2c[nH]c3ccccc23)NC(=O)[C@H](C(C)C)NC(=O)[C@H](Cc2ccccc2)N(C)C(=O)[C@H](C(C)C)NC(=O)[C@H](C)NC(=O)CSC[C@@H](C(=O)NCCOCCOCCOCCOCCOCCOCCOCCOCCOCCOCCOCCOCCC(N)=O)NC(=O)[C@H](Cc2ccc(O)cc2)N(C)C(=O)[C@H](Cc2ccc(O)cc2)NC(=O)[C@H](CCCNC(=N)N)NC(=O)[C@H](CCCNC(=N)N)NC(=O)[C@H]([C@@H](C)CC)NC1=O` [compound 140] ({CH2CO}-AV[NMeF]VWNAYIIRRY[NMeY]C[PEG12]-NH2; thioether N-15) here?
**A.** The Kd was 1 to 100 nM.

**Q.** With `CC[C@H](C)[C@@H]1NC(=O)[C@H](Cc2ccc(O)cc2)NC(=O)[C@H](Cc2ccc(O)cc2)NC(=O)[C@H](CC(N)=O)NC(=O)[C@H](Cc2c[nH]c3ccccc23)NC(=O)[C@H](C(C)C)NC(=O)[C@H](Cc2ccccc2)NC(=O)[C@H](C(C)C)NC(=O)[C@H](C)NC(=O)CSC[C@@H](C(=O)NCCOCCOCCOCCOCCOCCOCCOCCOCCOCCOCCOCCOCCC(=O)N[C@@H](CCCCNC(=O)c2ccc(-c3c4ccc(=O)cc-4oc4cc(O)ccc34)c(C(=O)O)c2)C(N)=O)NC(=O)[C@H](Cc2ccc(O)cc2)N(C)C(=O)[C@H](Cc2ccc(O)cc2)NC(=O)[C@H](CCCNC(=N)N)NC(=O)[C@H](CCCNC(=N)N)NC(=O)[C@H]([C@@H](C)CC)NC1=O` [compound 147] as the molecule, how does the Kd (linker and payload (FITC, VivoTag) conjugates) read?
**A.** Its Kd is under 1 nM.

From patent US20230203098A1, “HUMAN TRANSFERRIN RECEPTOR BINDING PEPTIDE” (priority 2020, published 2023)
